Source: EP1683799A1, “3-Amino-6-aryl(or 6-heteroaryl)-4-R²-thieno[2,3-b]pyridin-2-carboxylic acid amides, pharmaceutical compositions comprising the said and their use as inhibitors of TNFalpha release” (IBFB Pharma GmbH, priority 2005, dated 2006)

Test system: TNFα-Freisetzung
Test: Inhibition of TNFα release after LPS stimulation of human whole blood (ELISA)
Format: cell-based
Conditions: human whole blood diluted 1:5 with RPMI 1640; LPS (Salmonella abortus equi) 1 µg/ml; 24 h at 37°C; TNFα in supernatant by ELISA; read-out: EC50 Hemmung der TNFα-Freisetzung
Text: Methodenbeschreibung der Hemmung der TNFα Freisetzung nach LPS Stimulation von humanem Vollblut
Die Stimulierung isolierter Leukozyten für die Freisetzung von Zytokinen kann auf verschiedenen Wegen erfolgen. Lipopolysaccharide (LPS) stellen einen Stimulus für die Untersuchung der Freisetzung von TNFα dar. LPS ist Bestandteil bakterieller Zellwände und wird beim Abtöten der Bakterien (durch Antibiotika oder das natürliche Immunsystem) freigesetzt. LPS stimuliert insbesondere die Aktivität phagozytierender Leukozyten (Gewebsmakrophagen, Granulozyten, Monozyten) und verursacht die Infiltration von Leukozyten vom peripheren Blut in das betroffene Gewebe. Ein Zytokin von besonderer Bedeutung für diese Mechanismen ist TNFα, das in großen Mengen durch die betroffenen Zellen sezemiert wird. Hauptquelle dabei sind Monozyten und Makrophagen. TNFα initiiert und prolongiert den Entzündungsprozess im Zusammenspiel mit anderen Mediatoren.
Für die Untersuchung des Effektes auf die LPS-induzierte TNFα-Freisetzung wurde eine Methode verwendet, die von MARX et al. (Marx D, Tassabehji M, Heer S, Hüttenbrink KB, Szelenyi I (2002) Pulmonary Pharmacology & Therapeutics 15 7-15) beschrieben wurde. Die Methodenbeschreibung in verkürzter Darstellung: Humanes Blut verschiedener Spendern wird durch Zusatz von 10 mM Na-Citrat ungerinnbar gemacht und 1:5 mit RPMI 1640 Zellkulturmedium verdünnt. Die Verbindungen der allgemeinen Formel 1 sowie die Kontrollsubstanzen (z.B. Dexamethason) wurden den Blutproben in verschiedenen Konzentrationen hinzugefügt. 15 Minuten später wurden die Leukozyten durch Zusatz von Lipopolysacchariden (LPS) (aus Salmonella abortus equi) in einer Endkonzentration von 1 µg/ml stimuliert. Nach Inkubation der Testansätze für 24 Stunden bei 37°C. und unter 5% CO2 in wassergesättigter Luft, wurde das Blut zentrifugiert und die Konzentration an TNFα im zellfreien Überstand unter Verwendung eines käuflichen ELISA (BD Biosciences) nach Angaben des Herstellers exakt vermessen.

SMILES	EC50 [nM]
Cc1ccc(-c2cc(C(F)F)c3c(N)c(C(N)=O)sc3n2)cc1 [Beispiel 1, 3-Amino-4-difluormethyl-6-(4-methyl-phenyl)thieno[2,3-b]pyridin-2-carbonsäureamid]	< 1
CSc1ccc(-c2cc(C(F)(F)F)c3c(N)c(C(N)=O)sc3n2)cc1 [3-Amino-6-(4-methylthio-phenyl)-4-trifluormethyl-thieno[2,3-b]pyridin-2-carbonsäureamid]	< 1
CC(C)c1ccc(-c2cc(C(F)(F)F)c3c(N)c(C(N)=O)sc3n2)cc1 [Beispiel 10, 3-Amino-6-(4-isopropyl-phenyl)-4-trifluormethyl-thieno[2,3-b]pyridin-2-carbonsäureamid]	< 1
NC(=O)c1sc2nc(-c3cccs3)cc(C(F)(F)F)c2c1N [Beispiel 2, 3-Amino-6-(2-thienyl)-4-trifluormethyl-thieno[2,3-b]pyridin-2-carbonsäureamid]	< 1
NC(=O)c1sc2nc(-c3ccccc3)cc(C(F)(F)F)c2c1N [Beispiel 6, 3-Amino-6-phenyl-4-trifluormethyl-thieno[2,3-b]pyridin-2-carbonsäureamid]	< 1
NC(=O)c1sc2nc(-c3ccc4ccccc4c3)cc(C(F)(F)F)c2c1N [Beispiel 5, 3-Amino-6-(2-naphthyl)-4-trifluormethyl-thieno[2,3-b]pyridin-2-carbonsäureamid]	< 1
Cc1ccc(-c2cc(C(F)(F)F)c3c(N)c(C(N)=O)sc3n2)cc1 [Beispiel 7, 3-Amino-6-(4-methyl-phenyl)-4-trifluormethyl-thieno[2,3-b]pyridin-2-carbonsäureamid]	< 1
NC(=O)c1sc2nc(-c3ccc4c(c3)OCCO4)cc(C(F)(F)F)c2c1N [3-Amino-6-(3,4-dioxoethylen-phenyl)-4-trifluormethyl-thieno[2,3-b]pyridin-2-carbonsäureamid]	< 1
CCCc1ccc(-c2cc(C(F)(F)F)c3c(N)c(C(N)=O)sc3n2)cc1 [Beispiel 9, 3-Amino-6-(4-propyl-phenyl)-4-trifluormethyl-thieno[2,3-b]pyridin-2-carbonsäureamid]	< 1
CCc1ccc(-c2cc(C(F)(F)F)c3c(N)c(C(N)=O)sc3n2)cc1 [Beispiel 8, 3-Amino-6-(4-ethyl-phenyl)-4-trifluormethyl-thieno[2,3-b]pyridin-2-carbonsäureamid]	< 1

The remaining lines, values ahead:

EC50 [nM]	SMILES
< 1	NC(=O)c1sc2nc(-c3ccc(Cl)cc3)cc(C(F)(F)F)c2c1N [Beispiel 14, 3-Amino-6-(4-chlor-phenyl)-4-trifluormethyl-thieno[2,3-b]pyridin-2-carbonsäureamid]
< 1	Cc1ccc(-c2cc(C(F)(F)F)c3c(N)c(C(N)=O)sc3n2)cc1C [Beispiel 16, 3-Amino-6-(3,4-dimethyl-phenyl)-4-trifluormethyl-thieno[2,3-b]pyridin-2-carbonsäureamid]
< 1	CCOc1ccc(-c2cc(C(F)(F)F)c3c(N)c(C(N)=O)sc3n2)cc1 [Beispiel 13, 3-Amino-6-(4-ethoxy-phenyl)-4-trifluormethyl-thieno[2,3-b]pyridin-2-carbonsäureamid]
< 1	NC(=O)c1sc2nc(-c3ccc(Br)cc3)cc(C(F)(F)F)c2c1N [Beispiel 15, 3-Amino-6-(4-brom-phenyl)-4-trifluormethyl-thieno[2,3-b]pyridin-2-carbonsäureamid]
< 1	COc1ccc(-c2cc(C(F)(F)F)c3c(N)c(C(N)=O)sc3n2)cc1 [Beispiel 12, 3-Amino-6-(4-methoxy-phenyl)-4-trifluormethyl-thieno[2,3-b]pyridin-2-carbonsäureamid]
< 1	NC(=O)c1sc2nc(-c3ccc4c(c3)OCO4)cc(C(F)(F)F)c2c1N [Beispiel 18, 3-Amino-6-(3,4-dioxomethylen-phenyl)-4-trifluormethyl-thieno[2,3-b]pyridin-2-carbonsäureamid]
< 1	NC(=O)c1sc2nc(-c3ccc(F)cc3)cc(C(F)(F)F)c2c1N [Beispiel 22, 3-Amino-6-(4-fluor-phenyl)-4-trifluormethyl-thieno[2,3-b]pyridin-2-carbonsäureamid]
